Test results reported in patent US20240382629A1, “HETEROBIVALENT AND HOMOBIVALENT AGENTS TARGETING FIBROBLAST ACTIVATION PROTEIN ALPHA AND/OR PROSTATE-SPECIFIC MEMBRANE ANTIGEN” (The Johns Hopkins University, priority 2021, published 2024).
Values joined by “and” are separate entries in the source; they are usually repeats but may differ in a detail not shown here. Identical values can stand only once.

Test: Biodistribution of [^18F]JHU122047 with UAMC-01110 blocker
Assay type: in vivo, mouse
Conditions: 60 min; for % ID/g Bladder / % ID/g Blood / % ID/g Brain / % ID/g Fat / % ID/g Femur / % ID/g Heart / % ID/g Kidney / % ID/g Large intestine / % ID/g Liver / % ID/g Lung / % ID/g Muscle / % ID/g Pancreas / % ID/g Salivery gland / % ID/g Small intestine / % ID/g Spleen / % ID/g Stomach / % ID/g Tumor: individual mouse
[1] = NOD/SCID Model, + Blocker (UAMC-01110)
[2] = Nude Model, + Blocker (UAMC-01110)

N#C[C@@H]1CCCN1C(=O)CNC(=O)c1ccnc2ccc(OCCCNC(=O)[C@H](CCNC(=O)c3ccc([18F])nc3)NC(=O)CN3CCN(CC(=O)[O-])CCN(CC(=O)[O-])CCN(CC(=O)[O-])CC3)cc12.[In+3] [[^18F]Sri-08-51]
% ID/g Bladder [1]: 13.35 % ID/g and 61.94 % ID/g
% ID/g Blood [1]: 0.22 % ID/g and 0.40 % ID/g
% ID/g Brain [1]: 0.02 % ID/g and 1.02 % ID/g
% ID/g Fat [1]: 0.06 % ID/g
% ID/g Femur [1]: 0.88 % ID/g and 0.38 % ID/g
% ID/g Heart [1]: 0.11 % ID/g and 0.25 % ID/g
% ID/g Kidney [1]: 1.42 % ID/g and 1.40 % ID/g
% ID/g Large intestine [1]: 0.19 % ID/g and 0.35 % ID/g
% ID/g Liver [1]: 4.02 % ID/g and 8.14 % ID/g
% ID/g Lung [1]: 0.32 % ID/g and 0.61 % ID/g
% ID/g Muscle [1]: 0.07 % ID/g and 0.49 % ID/g
% ID/g Pancreas [1]: 0.08 % ID/g and 0.17 % ID/g
% ID/g Salivery gland [1]: 0.45 % ID/g and 0.26 % ID/g
% ID/g Small intestine [1]: 0.94 % ID/g and 2.12 % ID/g
% ID/g Spleen [1]: 0.14 % ID/g and 0.32 % ID/g
% ID/g Stomach [1]: 0.25 % ID/g and 0.45 % ID/g
% ID/g Tumor [1]: 1.34 % ID/g and 0.91 % ID/g
% ID/g Bladder Mean [1]: 37.64 % ID/g
% ID/g Blood Mean [1]: 0.31 % ID/g
% ID/g Brain Mean [1]: 0.52 % ID/g
% ID/g Fat Mean [1]: 0.06 % ID/g
% ID/g Femur Mean [1]: 0.88 % ID/g
% ID/g Heart Mean [1]: 0.18 % ID/g
% ID/g Kidney Mean [1]: 1.41 % ID/g
% ID/g Large intestine Mean [1]: 0.27 % ID/g
% ID/g Liver Mean [1]: 6.08 % ID/g
% ID/g Lung Mean [1]: 0.47 % ID/g
% ID/g Muscle Mean [1]: 0.28 % ID/g
% ID/g Pancreas Mean [1]: 0.13 % ID/g
% ID/g Salivary gland Mean [1]: 0.35 % ID/g
% ID/g Small intestine Mean [1]: 1.53 % ID/g
% ID/g Spleen Mean [1]: 0.23 % ID/g
% ID/g Stomach Mean [1]: 0.35 % ID/g
% ID/g Tumor Mean [1]: 1.13 % ID/g
% ID/g Bladder (NOD/SCID Model, no blocker): 44.77 % ID/g and 23.08 % ID/g
% ID/g Blood (NOD/SCID Model, no blocker): 4.18 % ID/g and 5.83 % ID/g
% ID/g Brain (NOD/SCID Model, no blocker): 0.26 % ID/g and 0.25 % ID/g
% ID/g Fat (NOD/SCID Model, no blocker): 2.81 % ID/g and 0.45 % ID/g
% ID/g Femur (NOD/SCID Model, no blocker): 4.83 % ID/g and 5.16 % ID/g
% ID/g Heart (NOD/SCID Model, no blocker): 1.74 % ID/g and 2.39 % ID/g
% ID/g Kidney (NOD/SCID Model, no blocker): 2.10 % ID/g and 2.19 % ID/g
% ID/g Large intestine (NOD/SCID Model, no blocker): 1.91 % ID/g and 1.87 % ID/g
% ID/g Liver (NOD/SCID Model, no blocker): 3.23 % ID/g and 4.21 % ID/g
% ID/g Lung (NOD/SCID Model, no blocker): 2.77 % ID/g and 2.76 % ID/g
% ID/g Muscle (NOD/SCID Model, no blocker): 2.84 % ID/g and 2.83 % ID/g
% ID/g Pancreas (NOD/SCID Model, no blocker): 3.99 % ID/g and 4.82 % ID/g
% ID/g Salivery gland (NOD/SCID Model, no blocker): 12.48 % ID/g and 14.32 % ID/g
% ID/g Small intestine (NOD/SCID Model, no blocker): 2.09 % ID/g
% ID/g Spleen (NOD/SCID Model, no blocker): 1.27 % ID/g and 1.71 % ID/g
% ID/g Stomach (NOD/SCID Model, no blocker): 1.65 % ID/g and 1.75 % ID/g
% ID/g Tumor (NOD/SCID Model, no blocker): 16.64 % ID/g and 15.98 % ID/g
% ID/g Bladder Mean (NOD/SCID Model, no blocker): 33.92 % ID/g
% ID/g Blood Mean (NOD/SCID Model, no blocker): 5.01 % ID/g
% ID/g Brain Mean (NOD/SCID Model, no blocker): 0.25 % ID/g
% ID/g Fat Mean (NOD/SCID Model, no blocker): 1.63 % ID/g
% ID/g Femur Mean (NOD/SCID Model, no blocker): 5.00 % ID/g
% ID/g Heart Mean (NOD/SCID Model, no blocker): 2.07 % ID/g
% ID/g Kidney Mean (NOD/SCID Model, no blocker): 2.15 % ID/g
% ID/g Large intestine Mean (NOD/SCID Model, no blocker): 1.89 % ID/g
% ID/g Liver Mean (NOD/SCID Model, no blocker): 3.72 % ID/g
% ID/g Lung Mean (NOD/SCID Model, no blocker): 2.77 % ID/g
% ID/g Muscle Mean (NOD/SCID Model, no blocker): 2.84 % ID/g
% ID/g Pancreas Mean (NOD/SCID Model, no blocker): 4.40 % ID/g
% ID/g Salivary gland Mean (NOD/SCID Model, no blocker): 13.40 % ID/g
% ID/g Small intestine Mean (NOD/SCID Model, no blocker): 2.09 % ID/g
% ID/g Spleen Mean (NOD/SCID Model, no blocker): 1.49 % ID/g
% ID/g Stomach Mean (NOD/SCID Model, no blocker): 1.70 % ID/g
% ID/g Tumor Mean (NOD/SCID Model, no blocker): 16.31 % ID/g
% ID/g Bladder [2]: 0.22 % ID/g and 0.74 % ID/g
% ID/g Blood [2]: 0.10 % ID/g
% ID/g Brain [2]: 0.01 % ID/g
% ID/g Fat [2]: 0.03 % ID/g and 0.01 % ID/g
% ID/g Femur [2]: 0.12 % ID/g
% ID/g Heart [2]: 0.05 % ID/g
% ID/g Kidney [2]: 1.19 % ID/g and 1.05 % ID/g
% ID/g Large intestine [2]: 0.08 % ID/g and 0.11 % ID/g
% ID/g Liver [2]: 1.88 % ID/g and 2.01 % ID/g
% ID/g Lung [2]: 0.21 % ID/g and 0.22 % ID/g
% ID/g Muscle [2]: 0.07 % ID/g and 0.04 % ID/g
% ID/g Pancreas [2]: 0.05 % ID/g
% ID/g Salivery gland [2]: 0.07 % ID/g and 0.08 % ID/g
% ID/g Small intestine [2]: 3.50 % ID/g and 2.97 % ID/g
% ID/g Spleen [2]: 0.08 % ID/g
% ID/g Stomach [2]: 0.08 % ID/g and 0.15 % ID/g
% ID/g Tumor [2]: 0.17 % ID/g and 0.18 % ID/g
% ID/g Bladder Mean [2]: 0.48 % ID/g
% ID/g Blood Mean [2]: 0.10 % ID/g
% ID/g Brain Mean [2]: 0.01 % ID/g
% ID/g Fat Mean [2]: 0.02 % ID/g
% ID/g Femur Mean [2]: 0.12 % ID/g
% ID/g Heart Mean [2]: 0.05 % ID/g
% ID/g Kidney Mean [2]: 1.12 % ID/g
% ID/g Large intestine Mean [2]: 0.09 % ID/g
% ID/g Liver Mean [2]: 1.95 % ID/g
% ID/g Lung Mean [2]: 0.21 % ID/g
% ID/g Muscle Mean [2]: 0.05 % ID/g
% ID/g Pancreas Mean [2]: 0.05 % ID/g
% ID/g Salivary gland Mean [2]: 0.08 % ID/g
% ID/g Small intestine Mean [2]: 3.24 % ID/g
% ID/g Spleen Mean [2]: 0.08 % ID/g
% ID/g Stomach Mean [2]: 0.11 % ID/g
% ID/g Tumor Mean [2]: 0.18 % ID/g
% ID/g Bladder (Nude Model, no blocker): 1.18 % ID/g and 2.99 % ID/g
% ID/g Blood (Nude Model, no blocker): 3.06 % ID/g and 3.20 % ID/g
% ID/g Brain (Nude Model, no blocker): 0.09 % ID/g and 0.08 % ID/g
% ID/g Fat (Nude Model, no blocker): 0.52 % ID/g and 0.77 % ID/g
% ID/g Femur (Nude Model, no blocker): 4.44 % ID/g and 3.86 % ID/g
% ID/g Heart (Nude Model, no blocker): 1.35 % ID/g and 1.52 % ID/g
% ID/g Kidney (Nude Model, no blocker): 1.69 % ID/g and 1.72 % ID/g
% ID/g Large intestine (Nude Model, no blocker): 1.20 % ID/g and 1.30 % ID/g
% ID/g Liver (Nude Model, no blocker): 1.81 % ID/g and 1.93 % ID/g
% ID/g Lung (Nude Model, no blocker): 2.03 % ID/g and 2.25 % ID/g
% ID/g Muscle (Nude Model, no blocker): 1.86 % ID/g and 1.93 % ID/g
% ID/g Pancreas (Nude Model, no blocker): 3.94 % ID/g and 3.77 % ID/g
% ID/g Salivery gland (Nude Model, no blocker): 7.74 % ID/g
% ID/g Small intestine (Nude Model, no blocker): 1.93 % ID/g and 1.63 % ID/g
% ID/g Spleen (Nude Model, no blocker): 0.90 % ID/g and 1.02 % ID/g
% ID/g Stomach (Nude Model, no blocker): 1.06 % ID/g and 1.16 % ID/g
% ID/g Tumor (Nude Model, no blocker): 10.87 % ID/g and 13.08 % ID/g
% ID/g Bladder Mean (Nude Model, no blocker): 2.09 % ID/g
% ID/g Blood Mean (Nude Model, no blocker): 3.13 % ID/g
% ID/g Brain Mean (Nude Model, no blocker): 0.09 % ID/g
% ID/g Fat Mean (Nude Model, no blocker): 0.64 % ID/g
% ID/g Femur Mean (Nude Model, no blocker): 4.15 % ID/g
% ID/g Heart Mean (Nude Model, no blocker): 1.43 % ID/g
% ID/g Kidney Mean (Nude Model, no blocker): 1.70 % ID/g
% ID/g Large intestine Mean (Nude Model, no blocker): 1.25 % ID/g
% ID/g Liver Mean (Nude Model, no blocker): 1.87 % ID/g
% ID/g Lung Mean (Nude Model, no blocker): 2.14 % ID/g
% ID/g Muscle Mean (Nude Model, no blocker): 1.90 % ID/g
% ID/g Pancreas Mean (Nude Model, no blocker): 3.85 % ID/g
% ID/g Salivary gland Mean (Nude Model, no blocker): 8.22 % ID/g
% ID/g Small intestine Mean (Nude Model, no blocker): 1.78 % ID/g
% ID/g Spleen Mean (Nude Model, no blocker): 0.96 % ID/g
% ID/g Stomach Mean (Nude Model, no blocker): 1.11 % ID/g
% ID/g Tumor Mean (Nude Model, no blocker): 11.97 % ID/g
